Experimental data published in patent publication US20150031102A1, “METHODS AND COMPOSITIONS FOR ENHANCED PRODUCTION OF BUTANOL BY CLOSTRIDIA” (Butrolix LLC, priority 2012, published 2015).

Test system: Clostridium acetobutylicum strain ATCC 824
Assay: Sequential batch transfer in 24-well culture plates (butanol, residual glucose, butanol yield and productivity)
Format: cell-based
Conditions: after 96 hours of culture; for Residual glucose concentration: initial glucose 60 g/L
Method: Each well contained 1.5 mL of growth medium. Peptide was added to each well at the indicated concentration (0, 25, 50, and 100 nM). Every 24 hours fresh medium and peptide treatment were added to a new column of wells then 1.5 μL of the previous day culture was transferred to the new well. Wells were harvested for glucose and butanol analysis after 96 hours of growth. Transfers 1, 4, 7, 10, 13, 16, […].
Briefly, Clostridium spores were germinated in a suitable growth medium for 18-24 hours then […] was transferred to 1.5 mL of fresh medium in each of four wells on a 24-well culture plate. Three of the wells had been treated with 25 nM, 50 nM and 100 nM of peptide, respectively while the fourth well was untreated. Thereafter, every 24 hours […] of each subculture was transferred to 1.5 mL of fresh medium that contained the same peptide treatment or no treatment. Transfers of successive subcultures were done for 24 days, and each subculture was grown for 96 hours before being harvested. Culture supernatants were recovered following centrifugation and were analyzed for butanol and residual glucose concentrations. Determination of optimum peptide treatment levels was based on a graphical comparison of the concentration of butanol in each of the four culture wells for sequential transfers 1, 4, 7, 10, 13, 16, 19, 22 and 24.
Clostridium acetobutylicum strain ATCC 824 was used in all experiments and the growth medium used for sequential batch transfer, time course, and continuous culture experiments contained yeast extract, casamino acids, L-cysteine, L-asparagine, phosphate buffer, trace minerals, and 6% glucose. What are believed to be quorum-sensing peptides that were used in the experiments were chemically synthesized peptides SEQ ID NO: 143 (amino acid sequence: SYPGWSW) and SEQ ID NO: 144 (amino acid sequence: ILILISG). Routine growth of the bacteria as well as the sequential batch and time course experiments were conducted in a Form a Scientific Model 1029 anaerobic gas chamber at 32° C. Continuous cultures were performed at 32° C. using duplicate New Brunswick Scientific BioFlo 3000 apparati with a dilution rate of 0.01 volume per hour, 75 rpm agitation, and nitrogen gas sparging. Optical density of culture samples was measured at 600 nm in a Beckman DU 600 series spectrophotometer and glucose was analyzed using a YSI Model 2700 Select Biochemistry Analyzer with internal glucose calibration. Butanol concentrations were determined by measuring experimental and standard samples using a Varian Saturn 3 Gas Chromatograph/Mass Spectrometer and calculating butanol concentrations using standard curves.
(§1) Sequential batch transfer experiments were carried out in 24-well culture plates that contained 1.5 mL of medium per well. Peptide was added to each well at the indicated concentrations of 0 nM (control), 25 nM, 50 nM, or 100 nM. Every 24 hours, fresh medium and peptide treatments were added to a new column of wells. Then, 1.5 uL of the previous day culture was transferred to the new well. Wells were harvested for glucose and butanol analysis after 96 hours of growth; transfers 1, 4, 7, 10, 13, 16, 19, 22, and 24 were analyzed. Two representative experiments are shown in Tables 30 and 31 and FIGS. 14 and 15.
as §1, with “32” for “30”, “33” for “31”, “16” for “14”, “17.” for “15.”

[1] = 25 nM peptide, transfer 1, Expt. 1
[2] = 25 nM peptide, transfer 4, Expt. 1
[3] = 25 nM peptide, transfer 7, Expt. 1
[4] = 25 nM peptide, transfer 10, Expt. 1
[5] = 25 nM peptide, transfer 13, Expt. 1
[6] = 25 nM peptide, transfer 16, Expt. 1
[7] = 25 nM peptide, transfer 19, Expt. 1
[8] = 25 nM peptide, transfer 22, Expt. 1
[9] = 25 nM peptide, transfer 24, Expt. 1
[10] = 50 nM peptide, transfer 1, Expt. 1
[11] = 50 nM peptide, transfer 4, Expt. 1
[12] = 50 nM peptide, transfer 7, Expt. 1
[13] = 50 nM peptide, transfer 10, Expt. 1
[14] = 50 nM peptide, transfer 13, Expt. 1
[15] = 50 nM peptide, transfer 16, Expt. 1

ILILISG (Derived from Clostridium acetobutylicum SEQ ID NO: 110) [peptide SEQ ID NO: 144]
Butanol concentration [1]: 1.93 g/L | Butanol productivity [1]: 0.02 g butanol/L-h | Butanol yield [1]: 0.03 g butanol/g/glucose | Butanol concentration (25 nM peptide, transfer 1, Expt. 2 (repeat), Table 58): 1.25 g/L | Residual glucose concentration [1]: 43.3 g/L | Residual glucose concentration (25 nM peptide, transfer 1, Expt. 2 (repeat), Table 45): 48.7 g/L | Butanol concentration [2]: 10.01 g/L | Butanol productivity [2]: 0.10 g butanol/L-h | Butanol yield [2]: 0.17 g butanol/g/glucose | Butanol concentration (25 nM peptide, transfer 4, Expt. 2 (repeat), Table 58): 2.36 g/L | Residual glucose concentration [2]: 0.0 g/L | Residual glucose concentration (25 nM peptide, transfer 4, Expt. 2 (repeat), Table 45): 43.6 g/L | Butanol concentration [3]: 7.82 g/L | Butanol productivity [3]: 0.08 g butanol/L-h | Butanol yield [3]: 0.13 g butanol/g/glucose | Butanol concentration (25 nM peptide, transfer 7, Expt. 2 (repeat), Table 58): 2.26 g/L | Residual glucose concentration [3]: .01 g/L | Residual glucose concentration (25 nM peptide, transfer 7, Expt. 2 (repeat), Table 45): 46.5 g/L | Butanol concentration [4]: 11.88 g/L | Butanol productivity [4]: 0.12 g butanol/L-h | Butanol yield [4]: 0.20 g butanol/g/glucose | Butanol concentration (25 nM peptide, transfer 10, Expt. 2 (repeat), Table 58): 3.56 g/L | Residual glucose concentration [4]: 0.1 g/L | Residual glucose concentration (25 nM peptide, transfer 10, Expt. 2 (repeat), Table 45): 42.5 g/L | Butanol concentration [5]: 7.56 g/L | Butanol productivity [5]: 0.08 g butanol/L-h | Butanol yield [5]: 0.13 g butanol/g/glucose | Butanol concentration (25 nM peptide, transfer 13, Expt. 2 (repeat), Table 58): 9.51 g/L | Residual glucose concentration [5]: 0.1 g/L | Residual glucose concentration (25 nM peptide, transfer 13, Expt. 2 (repeat), Table 45): 0.9 g/L | Butanol concentration [6]: 8.33 g/L | Butanol productivity [6]: 0.09 g butanol/L-h | Butanol yield [6]: 0.14 g butanol/g/glucose | Butanol concentration (25 nM peptide, transfer 16, Expt. 2 (repeat), Table 58): 12.57 g/L | Residual glucose concentration [6]: 0.0 g/L | Residual glucose concentration (25 nM peptide, transfer 16, Expt. 2 (repeat), Table 45): 0.1 g/L | Butanol concentration [7]: 7.52 g/L | Butanol productivity [7]: 0.08 g butanol/L-h | Butanol yield [7]: 0.12 g butanol/g/glucose | Butanol concentration (25 nM peptide, transfer 19, Expt. 2 (repeat), Table 58): 4.42 g/L | Residual glucose concentration [7]: 0.1 g/L | Residual glucose concentration (25 nM peptide, transfer 19, Expt. 2 (repeat), Table 45): 0.1 g/L | Butanol concentration [8]: 13.47 g/L | Butanol productivity [8]: 0.14 g butanol/L-h | Butanol yield [8]: 0.22 g butanol/g/glucose | Butanol concentration (25 nM peptide, transfer 22, Expt. 2 (repeat), Table 58): 3.65 g/L | Residual glucose concentration [8]: 9.9 g/L | Residual glucose concentration (25 nM peptide, transfer 22, Expt. 2 (repeat), Table 45): 0.1 g/L | Butanol concentration [9]: 7.27 g/L | Butanol productivity [9]: 0.08 g butanol/L-h | Butanol yield [9]: 0.12 g butanol/g/glucose | Butanol concentration (25 nM peptide, transfer 24, Expt. 2 (repeat), Table 58): 2.75 g/L | Residual glucose concentration [9]: 0.0 g/L | Residual glucose concentration (25 nM peptide, transfer 24, Expt. 2 (repeat), Table 45): 0.1 g/L | Butanol concentration [10]: 1.90 g/L | Butanol productivity [10]: 0.02 g butanol/L-h | Butanol yield [10]: 0.03 g butanol/g/glucose | Butanol concentration (50 nM peptide, transfer 1, Expt. 2 (repeat), Table 58): 1.29 g/L | Residual glucose concentration [10]: 41.8 g/L | Residual glucose concentration (50 nM peptide, transfer 1, Expt. 2 (repeat), Table 45): 47.4 g/L | Butanol concentration [11]: 9.57 g/L | Butanol productivity [11]: 0.10 g butanol/L-h | Butanol yield [11]: 0.16 g butanol/g/glucose | Butanol concentration (50 nM peptide, transfer 4, Expt. 2 (repeat), Table 58): 2.24 g/L | Residual glucose concentration [11]: 0.0 g/L | Residual glucose concentration (50 nM peptide, transfer 4, Expt. 2 (repeat), Table 45): 44.9 g/L | Butanol concentration [12]: 7.58 g/L | Butanol productivity [12]: 0.08 g butanol/L-h | Butanol yield [12]: 0.13 g butanol/g/glucose | Butanol concentration (50 nM peptide, transfer 7, Expt. 2 (repeat), Table 58): 1.98 g/L | Residual glucose concentration [12]: 0.0 g/L | Residual glucose concentration (50 nM peptide, transfer 7, Expt. 2 (repeat), Table 45): 49.8 g/L | Butanol concentration [13]: 11.09 g/L | Butanol productivity [13]: 0.12 g butanol/L-h | Butanol yield [13]: 0.18 g butanol/g/glucose | Butanol concentration (50 nM peptide, transfer 10, Expt. 2 (repeat), Table 58): 2.26 g/L | Residual glucose concentration [13]: 0.0 g/L | Residual glucose concentration (50 nM peptide, transfer 10, Expt. 2 (repeat), Table 45): 48.0 g/L | Butanol concentration [14]: 7.90 g/L | Butanol productivity [14]: 0.08 g butanol/L-h | Butanol yield [14]: 0.13 g butanol/g/glucose | Butanol concentration (50 nM peptide, transfer 13, Expt. 2 (repeat), Table 58): 4.58 g/L | Residual glucose concentration [14]: 0.1 g/L | Residual glucose concentration (50 nM peptide, transfer 13, Expt. 2 (repeat), Table 45): 49.1 g/L | Butanol concentration [15]: 9.34 g/L | Butanol productivity [15]: 0.10 g butanol/L-h | Butanol yield [15]: 0.15 g butanol/g/glucose | Butanol concentration (50 nM peptide, transfer 16, Expt. 2 (repeat), Table 58): 3.34 g/L | Residual glucose concentration [15]: 0.0 g/L | Residual glucose concentration (50 nM peptide, transfer 16, Expt. 2 (repeat), Table 45): 47.7 g/L
